Several values for one entry are separate records, joined by “and”; a condition that tells them apart may be missing. Identical values can stand only once.
How the values were obtained:
human FXR = molecular target: T1, human FXR (Homo sapiens, UniProt Q96RI1); experiment: full-length FXR reporter gene (transactivation) assay in HeLa cells; format: cell-based; conditions: for Emax: HeLa, read-out: FXR activation max. rel. activation (converted); for EC50: full-length FXR reporter gene assay, HeLa cells, read-out: FXR activation EC50; for FXR % activation at indicated conc.: 50 μM, relative to GW4064 (1c) at 3 μM = 100%
T1 construct: characterized in a full-length (fl) FXR reporter gene assay in HeLa cells; expressed in transfected cells; host or cells: HeLa
T1 sequence (Q96RI1 1-486): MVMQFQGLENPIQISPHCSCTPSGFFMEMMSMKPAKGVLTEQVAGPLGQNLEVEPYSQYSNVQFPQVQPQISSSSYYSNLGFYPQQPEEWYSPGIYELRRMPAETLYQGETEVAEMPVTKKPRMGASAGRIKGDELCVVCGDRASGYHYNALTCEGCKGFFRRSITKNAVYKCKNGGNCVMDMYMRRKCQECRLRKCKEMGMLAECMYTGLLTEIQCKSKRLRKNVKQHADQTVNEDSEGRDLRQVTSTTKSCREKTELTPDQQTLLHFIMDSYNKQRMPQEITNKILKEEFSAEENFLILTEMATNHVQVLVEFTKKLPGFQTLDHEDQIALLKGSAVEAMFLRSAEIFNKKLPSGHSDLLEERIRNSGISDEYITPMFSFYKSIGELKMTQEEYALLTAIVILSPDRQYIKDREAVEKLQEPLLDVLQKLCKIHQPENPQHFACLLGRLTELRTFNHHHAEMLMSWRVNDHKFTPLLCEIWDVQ
T1 sequence (P19793 1-462 partner): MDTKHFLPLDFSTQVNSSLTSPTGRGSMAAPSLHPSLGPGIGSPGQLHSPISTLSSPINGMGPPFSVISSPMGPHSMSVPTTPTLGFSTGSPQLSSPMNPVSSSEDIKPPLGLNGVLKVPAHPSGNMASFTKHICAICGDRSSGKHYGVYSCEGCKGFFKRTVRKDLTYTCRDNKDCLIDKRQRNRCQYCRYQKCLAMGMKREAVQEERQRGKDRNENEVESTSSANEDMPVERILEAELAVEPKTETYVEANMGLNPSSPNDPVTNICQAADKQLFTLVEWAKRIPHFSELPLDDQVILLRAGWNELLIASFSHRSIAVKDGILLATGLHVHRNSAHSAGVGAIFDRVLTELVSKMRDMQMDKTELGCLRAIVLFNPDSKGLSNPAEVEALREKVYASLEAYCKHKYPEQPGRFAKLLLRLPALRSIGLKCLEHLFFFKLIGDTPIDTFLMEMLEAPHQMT
Text: (§1) This assay is based on a reporter construct containing a firefly luciferase under the control of the FXR response element from bile salt export protein (BSEP). FXR and its hetero dimer partner retinoid X receptor (RXR) as expression constructs under the control of a CMV promoter as well as a constitutively expressed renilla luciferase (SV40 promoter) for normalization and toxicity control were co-transfected. […] The sEH inhibitory potency of the test compounds was quantified in a fluorescence-based assay using recombinant enzyme and the fluorogenic sEH substrate PHOME^37 that is hydrolyzed to a fluorescent 6-methoxynaphtaldehyde by sEH.
Plasmids: pcDNA3-hFXR contains the sequence of human FXR and was already published elsewhere.^47 pGL3 basic (Promega Corporation, Fitchburg, Wis., USA) was used as a reporter plasmid, with a shortened construct of the promotor of the bile salt export protein (BSEP) cloned into the SacI/NheI cleavage site in front of the luciferase gene.^48 pRL-V40 (Promega) was transfected as a control for normalization of transfection efficiency and cell growth. pSG5-hRXR was already published elsewhere as well.^49
Assay procedure: HeLa cells were grown in DMEM high glucose supplemented with 10% FCS, sodium pyruvate (1 mM), penicillin (100 U/mL) and streptomycin (100 μg/mL) at 37° C. and 5% CO2. […] Transient transfection of HeLa cells with BSEP-pGL3, pRL-SV40 and the expression plasmids pcDNA3-hFXR and pSG5-hRXR was carried out using calcium phosphate transfection method. […] Each concentration was tested in triplicate wells and each experiment was repeated independently at least three times. […] Luminescence was measured with a Tecan Infinite M200 luminometer (Tecan Deutschland GmbH, Crailsheim, Germany). Normalization of transfection efficiency and cell growth was done by division of firefly luciferase data by renilla luciferase data multiplied by 1000 resulting in relative light units (RLU). Fold activation was obtained by dividing the mean RLU of the tested compound at a respective concentration by the mean RLU of untreated control. […] EC50 and standard error of the mean values were calculated with the mean relative activation values of at least three independent experiments by SigmaPlot 10.0 (Systat Software GmbH, Erkrath, Germany) using a four parameter logistic regression.

recombinant human sEH = molecular target: T2, recombinant human sEH (Homo sapiens, UniProt P34913); experiment: fluorescence-based sEH activity assay with PHOME substrate; format: biochemical; conditions: for IC50: recombinant human sEH, PHOME, read-out: sEH inhibition IC50; for inhibition at 50 µM: read-out: sEH % inhibition at indicated conc.
T2 sequence (P34913 1-555): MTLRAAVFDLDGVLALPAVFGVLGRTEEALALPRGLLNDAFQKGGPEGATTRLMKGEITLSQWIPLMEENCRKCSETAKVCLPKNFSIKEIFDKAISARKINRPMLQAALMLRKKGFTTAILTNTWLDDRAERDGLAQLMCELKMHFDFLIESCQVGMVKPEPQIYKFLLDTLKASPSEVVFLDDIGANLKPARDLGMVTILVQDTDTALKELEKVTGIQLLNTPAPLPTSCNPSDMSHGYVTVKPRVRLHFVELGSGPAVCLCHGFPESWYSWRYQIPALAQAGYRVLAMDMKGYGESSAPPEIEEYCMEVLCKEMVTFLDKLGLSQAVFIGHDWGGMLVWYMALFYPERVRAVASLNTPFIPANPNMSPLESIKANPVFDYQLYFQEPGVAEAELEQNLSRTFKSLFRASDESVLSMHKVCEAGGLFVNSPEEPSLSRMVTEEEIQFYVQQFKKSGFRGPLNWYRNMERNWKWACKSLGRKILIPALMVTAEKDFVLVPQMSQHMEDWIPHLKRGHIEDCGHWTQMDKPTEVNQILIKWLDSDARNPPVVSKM
Text: as §1
The sEH inhibitory potency of the compounds were determined in a fluorescence-based 96-well sEH activity assay using recombinant human enzyme^50,51. Non-fluorescent PHOME (3-phenylcyano-(6-methoxy-2-naphthalenyl)methyl ester 2-oxiraneacetic acid; Cayman Chemicals) which can be hydrolyzed by the sEH to fluorescent 6-methoxynaphthaldehyde served as substrate. Recombinant human sEH (in Bis-Tris buffer, pH 7, with 0.1 mg/mL BSA containing a final concentration of 0.01% Triton-X 100) was pre-incubated with test compounds (in DMSO, final DMSO concentration: 1%) for 30 min at room temperature. […] A blank control (no protein and no compound) as well as a positive control (no compound) were executed. All experiments were conducted in triplicate and repeated in at least three independent experiments. For IC50 calculation, dose-response curves of increasing compound concentrations were recorded.

Compound | Emax (human FXR) | other results
CC(C)(C)c1ccc(C(=O)NCc2ccc(N)cc2Cl)cc1 [69a, N-(4-Amino-2-chlorobenzyl)-4-(tert-butyl)benzamide] | 29% | EC50 (human FXR): 46 nM and 45 nM; IC50 (recombinant human sEH): 40 ± 6 nM
Cc1ccc(C(=O)NCc2ccc(C(=O)O)cc2)cc1C [compound 10] | 12% | inhibition at 50 µM (recombinant human sEH): 52 ± 1%
O=C(O)c1ccc(CNC(=O)c2cccc(-c3ccccc3)c2)cc1 [compound 12] | 14% | –
O=C(O)c1ccc(CNC(=O)c2ccc(-c3ccccc3)cc2)cc1 [compound 13] | 24% | –
O=C(O)c1ccc(CNC(=O)c2ccc(Cl)c(Cl)c2)cc1 [compound 14] | – | FXR % activation at indicated conc. (human FXR): inactive (50 μM)
COc1ccc(C(=O)NCc2ccc(C(=O)O)cc2)cc1OC [compound 15] | 18% | inhibition at 50 µM (recombinant human sEH): 26 ± 2%
O=C(O)c1ccc(CNC(=O)c2ccc3ccccc3c2)cc1 [compound 17] | 18% | inhibition at 50 µM (recombinant human sEH): 45 ± 1%
CC(C)(C)c1ccc(C(=O)NCc2ccc(C(=O)O)cc2)cc1 [compound 18] | 13% | –
COc1cc(C(=O)NCc2ccc(C(=O)O)cc2)ccc1C(C)(C)C [compound 20] | 23% | –
CC(C)(C)c1ccc(NC(=O)Nc2ccc(C(=O)O)cc2)cc1 [compound 21] | 14% | –
CC(C)(C)c1ccc(C(=O)NCc2cccc(C(=O)O)c2)cc1 [compound 22] | 14% | inhibition at 50 µM (recombinant human sEH): 26 ± 2%
CC(C)(C)c1ccc(C(=O)NCc2ccc(CC(=O)O)cc2)cc1 [compound 23] | 19% | –
CC(C)(C)c1ccc(C(=O)NCc2ccc(CCC(=O)O)cc2)cc1 [compound 24] | 16% | –
CC(C)(C)c1ccc(C(=O)NCc2ccc(OCC(=O)O)cc2)cc1 [compound 25] | 21% | –
Cc1cc(CNC(=O)c2ccc(C(C)(C)C)cc2)ccc1C(=O)O [compound 26] | 14% | inhibition at 50 µM (recombinant human sEH): 53 ± 1%
CC(C)(C)c1ccc(C(=O)NCc2ccc(C(=O)O)c(F)c2)cc1 [compound 27] | 28% | –
CC(C)(C)c1ccc(C(=O)NCc2ccc(C(=O)O)c(Cl)c2)cc1 [compound 28] | 21% | inhibition at 50 µM (recombinant human sEH): 50 ± 1%
Cc1cc(C(=O)O)ccc1CNC(=O)c1ccc(C(C)(C)C)cc1 [compound 29] | – | FXR % activation at indicated conc. (human FXR): inactive (50 μM)
CC(C)(C)c1ccc(C(=O)NCc2ccc(C(=O)O)cc2F)cc1 [compound 30] | 26% | –
CC(C)(C)c1ccc(C(=O)NCc2ccc(C(=O)O)cc2Cl)cc1 [compound 31] | 25% | –
CC(NC(=O)c1ccc(C(C)(C)C)cc1)c1ccc(C(=O)O)cc1 (stereo not shown) [compound 32] | 24% | inhibition at 50 µM (recombinant human sEH): 37 ± 1%
CC(C)(C)c1ccc(C(=O)NCc2ccc(CO)cc2)cc1 [compound 33] | – | FXR % activation at indicated conc. (human FXR): inactive (50 μM)
CC(C)(C)c1ccc(C(=O)NCc2ccc(C=O)cc2)cc1 [compound 34] | 22% | –
CC(=O)c1ccc(CNC(=O)c2ccc(C(C)(C)C)cc2)cc1 [compound 35] | 29% | –
CC(C)(C)c1ccc(C(=O)NCc2ccc(C#N)cc2)cc1 [compound 36] | – | FXR % activation at indicated conc. (human FXR): inactive (50 μM)
CC(C)(C)c1ccc(C(=O)NCc2ccc(C(N)=O)cc2)cc1 [compound 37] | 27% | –
CNC(=O)c1ccc(CNC(=O)c2ccc(C(C)(C)C)cc2)cc1 [compound 38] | 29% | –
CN(C)C(=O)c1ccc(CNC(=O)c2ccc(C(C)(C)C)cc2)cc1 [compound 39] | 17 ± 100% | –
CC(C)(C)c1ccc(C(=O)NCc2ccc(N)cc2)cc1 [compound 42] | – | FXR % activation at indicated conc. (human FXR): inactive (50 μM)
CC(=O)NS(=O)(=O)c1ccc(CNC(=O)c2ccc(C(C)(C)C)cc2)cc1 [compound 45] | – | FXR % activation at indicated conc. (human FXR): inactive (50 μM)

More lines, main results first:

Emax (human FXR) | Compound | other results
31% | CC(=O)Nc1ccc(CNC(=O)c2ccc(C(C)(C)C)cc2)cc1 [compound 40] | –
20% | CC(C)(C)c1ccc(C(=O)NCc2ccc(NC(=O)C(F)(F)F)cc2)cc1 [compound 41] | –
23% | CC(C)(C)c1ccc(C(=O)NCc2ccc(-c3nnn[nH]3)cc2)cc1 [compound 43] | –
16% | CC(C)(C)c1ccc(C(=O)NCc2ccc(S(N)(=O)=O)cc2)cc1 [compound 44] | –
22% | CC(C)(C)c1ccc(C(=O)NCc2ccc(NS(C)(=O)=O)cc2)cc1 [compound 46] | –
19% | COc1ccc(CNC(=O)c2ccc(C(C)(C)C)cc2)cc1 [compound 47] | –
31% | CCOc1ccc(CNC(=O)c2ccc(C(C)(C)C)cc2)cc1 [compound 48] | –
26% | CC(C)Oc1ccc(CNC(=O)c2ccc(C(C)(C)C)cc2)cc1 [compound 49] | –
26% | CC(C)(C)c1ccc(C(=O)NCc2ccc(OC(F)(F)F)cc2)cc1 [compound 50] | –
33% | CSc1ccc(CNC(=O)c2ccc(C(C)(C)C)cc2)cc1 [compound 51] | EC50 (human FXR): ~100 nM; IC50 (recombinant human sEH): ~100 nM
24% | C[S+]([O-])c1ccc(CNC(=O)c2ccc(C(C)(C)C)cc2)cc1 (stereo not shown) [compound 52] | –
34% | CC(C)(C)c1ccc(C(=O)NCc2ccc(S(C)(=O)=O)cc2)cc1 [compound 53] | –
19% | CC(C)(C)c1ccc(C(=O)NCc2ccc(SC(F)(F)F)cc2)cc1 [compound 54] | –
34% | CC(C)(C)c1ccc(C(=O)NCc2ccc(S(N)(=O)=O)cc2F)cc1 [compound 55] | –

— patent publication US20200172473A1, “DUAL MODULATORS OF FARNESOID X RECEPTOR AND SOLUBLE EPOXIDE HYDROLASE” (JOHANN WOLFGANG GOETHE-UNIVERSITÄT FRANKFURT AM MAIN, priority 2017, published 2020)
